{"source": "paper PMC9992518", "about": "“Structural basis of peptide recognition and activation of endothelin receptors” (Nature Communications, 2023)", "origin": "cited, not measured here", "key": {"ETBR [1]": {"test_system": "ETBR", "parameters": "method as in earlier work", "conditions": "ETBR activated by ET-3"}, "ETAR [2]": {"test_system": "ETAR"}, "ETBR [3]": {"biological_target": "ETBR", "from_the_text": "(§1) S6c bears an identical substitution from K9 to E9 compared with s6b (Fig. 1a). The charge of the ninth residue has been thought to determine the ETR selectivity of s6c over s6b[33], supporting the importa ..."}, "ETAR [4]": {"biological_target": "ETAR", "from_the_text": "as §1", "remark": "listed apart in the source"}, "LgBiT": {"test_system": "LgBiT", "conditions": "NanoBiT complementary peptide", "from_the_text": "NanoLuc Binary Technology (NanoBiT, Promega) is originally a structurally complementary reporter system to evaluate protein-protein interaction in cells. NanoBiT is composed of a large subunit (LgBiT, 18 kDa) and an 11 amino acid complementary peptide (SmBiT, peptide, […]) with low affinity for LgBiT, both of which are connected to two interacting target proteins of interest, respectively. When the two proteins interact, the two subunits assemble into an active enzyme and generate a bright luminescent signal in the presence of a substrate. To improve the homogeneity and stability o ..."}}}
{"substance": "ET-3: endothelin, 21-amino-acid peptide hormone", "values": [{"measurement": "effect on ET-1-mediated effects upon ETBR activation (in words)", "setting": "ETBR [1]", "result": "can inhibit the ET-1-mediated effects"}, {"measurement": "fold weaker affinity for ETAR", "setting": "ETAR [2]; ETAR, relative to ET-1 and ET-2", "result": 100, "unit": "fold"}]}
{"substance": "Sarafotoxin s6c", "values": [{"measurement": "ETBR selectivity (in words)", "setting": "ETAR [2]; from reduced affinity for ETAR compared with s6b", "result": "substantial ETBR selectivity"}]}
{"substance": "Succinyl-[Glu^9, Ala^11,15]-ET-1(8-21) [IRL1620]", "values": [{"measurement": "Ki", "setting": "ETBR [3]", "result": 0.016, "unit": "nM"}, {"measurement": "Ki", "setting": "ETAR [4]", "result": 1900, "unit": "nM"}]}
{"substance": "VSGWRLFKKIS [HiBiT]", "values": [{"measurement": "affinity for LgBiT (in words)", "setting": "LgBiT", "result": "high affinity"}]}
{"substance": "VTGYRLFEEIL [SmBiT]", "values": [{"measurement": "affinity for LgBiT (in words)", "setting": "LgBiT", "result": "low affinity"}]}
